Data set [1] concerns male Wistar rat. As to the kind of experiment: Effect of orotic acid on core body temperature at rest (telemetry, breath gas analysis, spontaneous activity). In kind it is in vivo. The text has this: The body temperature lowering action of the body temperature lowering agent according to the embodiment of the present invention can be measured by a method for measuring the core body temperature at rest. The core body temperature at rest can be measured in accordance with a known method, for example, the method described in an article of Takahashi et al. (Nature 583: 109-114, 2020) and the like. Specifically, the measurement can be performed in the following manner. The core body temperature at rest is measured using a TRM54P Rat Telemetry System (available from KAHA Sciences) and SmartPad (TR181: available from KAHA Sciences) and quantified. The main body of TRM54P Rat Telemetry System is indwelled in the abdominal cavity of a test animal for measurement. All experiments are performed in the light phase, and on the day of the experiments, a rat is fasted 2 hours before start of the test to eliminate the effect of food-induced heat production. After the core body temperature at rest is measured for 20 minutes, a drug (orotic acids) or vehicle is intraperitoneally administered, and the core body temperature is measured for 120 minutes. In a case where the core body temperature at rest is lowered as compared with a case where orotic acids are not administered, it can be determined that the orotic acids have a body temperature lowering action. A 10-week-old male Wistar rat was used, and a one-week preliminary breeding period was provided before the day of an experiment. During the experiment, room temperature was maintained at 22±2° C. After the preliminary breeding, a telemetry (TRM54P, available from KAHA Sciences) for measuring the body temperature was indwelled in the abdominal cavity, and a recovery period and an acclimation period were provided for one week each. 300 mg/kg orotic acid, 30 mg/kg orotic acid, or a vehicle (1% carboxymethyl cellulose) was intraperitoneally administered to examine the effect on the core body temperature at rest. In addition to the core body temperature and a heart rate, an oxygen/carbon dioxide intake was measured using a breath gas analyzer (trade name: Oxymax, available from Columbus Instruments) to calculate a respiratory exchange ratio (also referred to as RER) and an amount of heat production. In addition, the amount of spontaneous activity was measured using an infrared beam sensor (trade name: beam sensor type spontaneous activity amount measuring device, available from Panlab). Note that in the experiment, the rat was placed under fasting for 2 hours before the start of the experiment, and the core body temperature at rest was measured for 20 minutes. Thereafter, the orotic acid or vehicle was intraperitoneally administered, and the measurement was performed until 2 hours later. The orotic acid was used in a free form.

For data set [2], the system named is male Wistar rat. As to the kind of experiment: Effect of orotic acid on core body temperature during treadmill exercise. It counts as in vivo. Conditions: treadmill 20 m/min for 30 minutes. The text has this:
The body temperature elevation suppressing action of the body temperature elevation suppressor according to the embodiment of the present invention can be measured by a method for measuring the core body temperature during exercise. The core body temperature during exercise can be measured in accordance with a known method, for example, a method described in the article by Takahashi et al. (Nature 583: 109-114, 2020) and the like. Specifically, the measurement can be performed in the following manner. A rat is placed in a treadmill metabolism chamber for small animals having an inclination of 10°, and after measuring the core body temperature at rest for 20 minutes, a single dose of a drug (orotic acids) is administered intraperitoneally. After the administration, the rat is left in a rest state for 15 minutes, and then exercise is started. The exercise is started at a running speed of 5 m/min, the running speed is increased to 20 m/min over 5 minutes, and the core body temperature is measured in the same manner as the method for measuring the core body temperature at rest. In a case where the core body temperature elevation during exercise is suppressed as compared with a case where the orotic acids are not administered, it can be determined that the orotic acids have the body temperature elevation suppressing action. A 10-week-old male Wistar rat was used, and a one-week preliminary breeding period was provided before the day of an experiment. During the experiment, room temperature was maintained at 22±2° C. After the preliminary breeding, a telemetry (trade name: TRM54P, available from KAHA Sciences) for measuring the body temperature was indwelled in the abdominal cavity, and a running test was performed after a recovery period of one week. Note that in the experiment, after 300 mg/kg orotic acid or a vehicle (physiological saline) was intraperitoneally administered in a rest state, treadmill exercise (20 m/min) was performed for 30 minutes, and the measurement was performed until 1 hour after the end of the exercise. The measurement items were core body temperature, a blood pressure, a heart rate, and breath gas metabolism. From the obtained oxygen/carbon dioxide intake, exercise economy was calculated. The orotic acid was used in a free form.

In data set [3] the test system is rat. Particulars: orotic acid administered to a rat, Non-Patent Document 2; cited from earlier work.

`O=C(O)c1cc(=O)[nH]c(=O)[nH]1` [orotic acid]: in data set [1] (30 mg/kg and 300 mg/kg intraperitoneal vs vehicle, infrared beam sensor, FIG. 4), the “amount of spontaneous activity at rest” value is recorded as “no difference between the groups”. The “core body temperature at rest, dose dependence” value in data set [1] (30 mg/kg and 300 mg/kg intraperitoneal, FIG. 1) is “decreased in a concentration dependent manner”. Moreover, in data set [1] (30 mg/kg and 300 mg/kg intraperitoneal, FIG. 2), the “heart rate at rest” value is reported as “did not fluctuate”. For the same compound, in data set [1] (300 mg/kg intraperitoneal, vs vehicle (1% carboxymethyl cellulose), measured until 2 hours after administration, FIG. 1), the “core body temperature at rest” value is on record as “significantly decreased”. In addition, the “amount of heat production at rest” value in data set [1] (300 mg/kg intraperitoneal, vs vehicle, breath gas analyzer, FIG. 3) is reported as “significantly decreased”. In data set [1] (orotic acid administered groups (30 and 300 mg/kg intraperitoneal), data not shown), the “contraction phase, diastole phase and mean blood pressure at rest” value was “significantly increased”. For the same compound, the exercise economy result in data set [2] (300 mg/kg intraperitoneal vs vehicle (physiological saline), FIG. 8) is on record as “increased”. Also, in data set [2] (300 mg/kg intraperitoneal vs vehicle, FIG. 5), the “excessive core body temperature elevation during exercise” value was “suppressed”. Further, the “heart rate during exercise” value in data set [2] (300 mg/kg intraperitoneal vs vehicle, FIG. 6) is given as “significantly decreased”. Also, in data set [2] (300 mg/kg intraperitoneal vs vehicle, FIG. 7), the “amount of heat production during exercise” value is “lowered”. In addition, the body temperature result in data set [3] is recorded as “not lowered”.

These data come from patent US20240122929A1, “BODY TEMPERATURE LOWERING AGENT, BODY TEMPERATURE ELEVATION SUPPRESSOR, FOOD COMPOSITION FOR LOWERING BODY TEMPERATURE,AND FOOD COMPOSITION FOR SUPPRESSING BODY TEMPERATURE ELEVATION” (University of Tsukuba, priority 2021, published 2024).
